Results taken from patent US20250163365A1, “LACTOBACILLUS REUTERI JH53 STRAIN HAVING EXCELLENT ORGANIC ACID RESISTANCE AND CONVERSION OF 1,3-PROPANDIOL FROM GLYCEROL, AND USE THEREOF” (ACTIVON CO., LTD., priority 2021, published 2025).
≈ marks a conversion by molar mass, not a printed value. Where two headings read alike, the source gives them in different places.

How the values were obtained:
[1] = test system: Lactobacillus reuteri CH53 strain; assay: IC50 of Lactobacillus reuteri CH53 strain for metabolites (Example 1); assay type: cell-based
Procedure: The half-maximal inhibitory concentrations (IC50) of the Lactobacillus reuteri CH53 strain (KCTC13149BP) for major metabolites were measured. […] Thereafter, 1% (v/v) of the strain culture with OD600 nm=8.0 was inoculated into each broth and statically cultured at 37° C. for 24 hours, and the concentration at which the absorbance (OD600 nm) was half of the control was measured.

L. reuteri CH53 = assay: IC50 for organic acids, parent strain (Example 3); assay type: cell-based, Lactobacillus reuteri; conditions: Limosilactobacillus reuteri
Procedure: (§1) In order to confirm that the Lactobacillus reuteri JH53 strain of the present invention has enhanced organic acid resistance, the half-maximal inhibitory concentrations (IC50) for organic acids were measured. […] Thereafter, 1% (v/v) of each strain culture with OD600 nm=8.0 was inoculated into each broth and statically cultured at 37° C. for 24 hours, and the concentration at which the absorbance (OD600 nm) was half of the control was measured.

L. reuteri JH53 = assay: IC50 for organic acids, mutant strain (Example 3); assay type: cell-based, Lactobacillus reuteri; conditions: Limosilactobacillus reuteri, JH53, 24 h, pH 5.5, read-out: IC50 (g/L) L. reuteri JH53
Procedure: as §1

[2] = test system: Lactobacillus reuteri CH53 strain; assay: Fed-batch culture of CH53 in medium supplemented with organic acid; assay type: cell-based; conditions: 10 g/L organic acid added, pH 5.5, fed-batch, 37° C., 100 rpm
Procedure: Cell growth and 1,3-propanediol production were measured while the Lactobacillus reuteri CH53 strain was fed-batch cultured in a medium supplemented with an organic acid. 3 L of MRS broth containing 20 g/L of glycerol, 10 g/L of proteose peptone NO. […] During culture, glucose and glycerol were continuously fed so that they could be maintained at residual concentrations of 5 to 10 g/L. Thereafter, 1% (v/v) of the strain culture with OD600 nm=8.0 was inoculated into each broth, and the absorbance (OD600 nm) was measured while fed-batch culture was carried out under conditions of 37° C. and 100 rpm. 1 mL of each culture was centrifuged at 13,000 rpm for 5 minutes, and then the supernatant was filtered through a 0.22-μm filter and the concentration of 1,3-propanediol was measured using high-performance liquid chromatography. 1,3-Propanediol production was analyzed by high-performance liquid chromatography equipped with an ion exchange column ([…], Aminex HPX-87H, Bio-Rad) and a differential refraction detector (RID) using 0.25 mM H2SO4 as a mobile phase at a flow rate of 0.6 ml/min.

[3] = test system: Lactobacillus reuteri CH53 strain; conditions: lactic acid and acetic acid mixed in MRS plate medium, anaerobic, 37° C., 24 hours
[4] = Limosilactobacillus reuteri, CH53STRAIN, CH53 strain, MRS broth pH 5.5, static culture 37° C. 24 hours, concentration at which OD600 nm was half of control, read-out: IC50

OCCCO [1,3-propanediol]
IC50 ([1]; CH53 strain, MRS broth pH 5.5, static culture 37° C. 24 hours, concentration at which OD600 nm was half of control): 79.8 mg/mL

CCO [Ethanol]
IC50 [1, 4]: 29.5 mg/mL

CC(=O)O [Acetic acid]
IC50 ([1]; Limosilactobacillus reuteri, CH53STRAIN, 24 h, pH 5.5): 17.4 mg/mL | IC50 (L. reuteri CH53; CH53, 24 h, pH 5.5, read-out: IC50 (g/L) L. reuteri CH53): 20.6 g/L (≈ 343 mM) | IC50 (L. reuteri JH53): 25.6 g/L (≈ 426 mM) | Effect on 1,3-propanediol production of CH53 strain [2]: reduced 1,3-propanediol production | Effect on cell growth of CH53 strain [2]: did not affect cell growth | Concentration at which CH53 strain could not grow [3]: ≥ 17.5 g/L

CC(O)C(=O)O (centres unmarked) [Lactic acid]
IC50 [1, 4]: 27.9 mg/mL | IC50 (L. reuteri CH53; CH53, MRS broth pH 5.5, static culture 37° C. 24 hours, OD600 nm half of control, read-out: IC50 (g/L) L. reuteri CH53): 31.9 g/L (≈ 354 mM) | IC50 (L. reuteri JH53): 36.7 g/L (≈ 407 mM) | Effect on 1,3-propanediol production of CH53 strain [2]: reduced 1,3-propanediol production | Effect on cell growth of CH53 strain [2]: did not affect cell growth | Concentration at which CH53 strain could not grow [3]: ≥ 35.0 g/L
